Laboratory results from US9504676B2, “Molecules inhibiting a metabolic pathway involving the Syk protein tyrosine kinase and method for identifying said molecules” (CENTRE NATIONAL DE LA RECHERCHE SCIENTIFIQUE, priority 2008, dated 2016).
≈ marks a conversion by molar mass, not a printed value.

Columns and labels:
[1] = biological target: T1, murine Syk tyrosine kinase protein (GST:Syk 6-242) (Mus musculus, UniProt P48025); experiment: ADA method: displacement of the binding of scFv G4G11 with Syk (ELISA); settings: small molecules at 10 μM, scFv G4G11 100 nM; read-out: In vit. inhib.: mean inhibition % of the binding of scFv G4G11 with Syk in the ADA method
T1 construct: made in house
Excerpt: The term “percentage of inhibition” of the binding of an antibody or antibody fragment with Syk protein, particularly refers to the ratio […], where A consists of the intensity of a signal proportional to the quantity of an antibody or antibody fragment bound with Syk protein in the absence of a molecule according to the invention and B the intensity of the same signal in the presence of a molecule according to the invention under the same conditions. […] This test may be performed for example according to the protocol described in example 3-2) hereinafter.
The inventors developed the ADA (Antigen Displacement Assay) method to identify small molecules capable of displacing the association with scFv G4G11 with Syk. […] To understand the mode of action of C-13, the inventors firstly identified the binding site of G4G11 using the SPOT method^16. An epitope located on the N-terminal SH2 domain of Syk, comprising amino acids 65-74 and 100% preserved in mouse, rat and human sequences, was identified.
The ADA method was then applied to each of these […] molecules to measure the ability thereof to inhibit the binding of scFv G4G11 with Syk.
(§1) • 1) Chemical products and antibodies. A chemical bank of 3000 molecules (a varied subset) was acquired from ChemBridge, Inc. (San Diego, Calif.). Stocks of solutions of small molecules were prepared at a rate of 10 mM in DMSO (dimethylsulphoxide), except for C-13 (methyl 2-{5-[(3-benzyl-4-oxo-2-thioxo-1,3-thiazolidin-5-ylidene)methyl]-2-furyl}benzoate, ChemBridge ID No. 6197026) prepared in DMF (dimethylformamide). Unless specified otherwise, all the reagents were supplied by Sigma. Dinitrophenyl (DNP) hapten was acquired from Calbiochem. Sepharose GammaBind G and all the secondary antibodies were supplied by GE Health Amersham Biosciences. The anti-Syk, anti-Lyn, anti-Btk, anti-PLC-γ1, anti-PLC-γ2, anti-LAT, anti-SLP-76, anti-p38, anti-JNK, anti-Vav, anti-Akt1 and 9E10 antibodies conjugated with HRP were acquired from Santa Cruz Biotechnology. The anti-phospho-p44/42 MAP Kinase, anti-p44/42 MAP Kinase, anti-phospho-p38, anti-phospho-JNK, anti-phospho-Akt1 antibodies were acquired from Cell Signaling. The anti-phospho-LAT and anti-phospho-PLC-γ1 antibodies were supplied by Biosource and the anti-phospho-SLP-76 antibodies by BD Pharmingen. The 4G10 anti-phosphotyrosine monoclonal antibody was acquired from Upstate Biotechnology. • 2) ADA method: ELISA type high-speed molecule screening test, based on antibody displacement (WO 2005106481). The recombinant fusion protein GST:Syk 6-242^8 comprising the residues 6 to 242 of murine Syk tyrosine kinase protein illustrated in FIG. 8B (SEQ ID No. 4) was immobilised on an ELISA plate at a final concentration of 10 μg ml^−1. For the screening of the chemical molecule bank, the small molecules, diluted in PBS at a final concentration of 10 μM were added to the wells for one hour at ambient temperature, before adding the fragment scFv G4G11 at a final concentration of 100 nM for an additional hour. The binding of G4G11 with Syk was assessed by adding the 9E10 monoclonal antibody conjugated with HRP detecting the amino acid sequence EQKLISEEDLN of human c-myc protein located at the C-terminal end of the scFv fragment. To generate Syk mutants, targeted mutagenesis was used on GST:Syk 6-242 protein and the binding of G4G11 with the mutants was assessed in the presence of 5 μM of C-13. • 3) Cells, culture conditions and functional tests. Anti-DNP 2682-I mouse monoclonal antibody was used as the culture supernatant of hybridomas containing 1 μg/ml of IgE. Femoral bone marrow cells were sampled and cultured in Opti-MEM medium (Gibco) supplemented with 10% foetal calf serum and 4% X63 transfectant supernatant secreting murine IL-3. RBL-2H3 (ATCC) leukaemic rat basophil cells were maintained in a single-layer culture in RPMI 1640 medium supplemented with 10% foetal calf serum (Gibco). […]

RBL-2H3 cells = experiment: cells; assay type: cell-based, rat; settings: Rattus norvegicus; RBL-2H3 cells; read-out: Degran. IC50: concentration inhibiting mast cell degranulation by 50%
Method: These 87 molecules were also tested in vitro to assess the ability thereof to inhibit RBL-2H3 cell degranulation (see table 1).
as §1, with “(Gibco). Measurements of β-hexosaminidase released by the RBL-2H3 cells were performed as described previously^7, except that, after 12-16 hours of incubation with anti-DNP IgE (0.5 μg/ml), the cells were incubated for 90 min at 37° C. in RPMI medium supplemented with the specified concentrations of C-13 or DMF (0.25%). The cells were stimulated for 45 min with DNP-BSA (50 ng ml^−1) or ionomycin (1.5 μM). The BMMC cells were incubated for one hour at 37° C. with anti-DNP IgE (100 ng/ml). They were then incubated with C-13 (3 μM) or DMF (0.3%) for 3 hours at 37° C., and stimulated with varied concentrations of DNP-BSA. The level of β-hexosaminidase released was measured 10 min later and the TNF-α titration was performed by means of a cytotoxicity test on L929 cells as described previously^10, 3 hours after stimulation. The results illustrated in FIG. 3 are representative of three independent experiments. • 4) Immunoprecipitations, in vitro kinase assays and immunodetection.” for “(Gibco).”

| Structure (SMILES) | inhibition at 10 µM [1] [%] | IC50 (RBL-2H3 cells) [µg/mL] |
| --- | --- | --- |
| COc1cc(NS(=O)(=O)c2ccc(NC(C)=O)cc2)c(OC)cc1NC(=O)c1ccccc1 [Molecule 21, N-[4-({[4-(acetylamino)phenyl]sulphonyl}amino)-2,5-dimethoxyphenyl] benzamide] | 58 | > 10 |
| COc1ccc(OCC(=O)NCc2cc(-c3nn(C)c(=O)c4ccccc34)ccc2C)cc1 [Molecule 72, 2-(4-methoxyphenoxy)-N-[2-methyl-5-(3-methyl-4-oxo-3,4-dihydro-1-phthalazinyl)benzyl]acetamide] | 28 | ~10 (≈ 22.5 µM) |
| COc1cccc(C2C(C(=O)c3ccccc3)=C(O)C(=O)N2CCCN2CCOCC2)c1OC (stereo not shown) [Molecule 74, 4-benzoyl-5-(2,3-dimethoxyphenyl)-3-hydroxy-1-(3-(4-morpholinyl)propyl]-1,5-dihydro-2H-pyrrol-2-one] | 27.5 | > 10 |
| O=C(C1=C(O)C(=O)N(CCCN2CCOCC2)C1c1ccccc1F)c1ccc(Cl)cc1 (stereo not shown) [Molecule 44, 4-(4-chlorobenzoyl)-5-(2-fluorophenyl)-3-hydroxy-1-[3-(4-morpholinyl)propyl]-1,5-dihydro-2H-pyrrol-2-one] | 48.5 | > 10 |
| CCOC(=O)c1sc(N2C(=O)C(O)=C(C(=O)c3ccccc3)C2c2ccc(OC)cc2)nc1C (stereo not shown) [Molecule 37, ethyl 2-[3-benzoyl-4-hydroxy-2-(4-methoxyphenyl)-5-oxo-2,5-dihydro-1H-pyrrol-1-yl]-4-methyl-1,3-thiazole-5-carboxylate] | 50 | > 10 |
| Cc1ccc(-c2nnc(Nc3cccc(O)c3)c3ccccc23)cc1S(=O)(=O)NC(C)(C)CO [Molecule 67, N-(2-hydroxy-1,1-dimethylethyl)-5-{4-[(3-hydroxyphenyl)amino]-1-phthalazinyl}-2-methylbenzenesulphonamide] | 32 | > 10 |
| O=C(C1=C(O)C(=O)N(Cc2cccnc2)C1c1cccc(Oc2ccccc2)c1)c1ccc(F)cc1 (stereo not shown) [Molecule 9, 4-(4-fluorobenzoyl)-3-hydroxy-5-(3-phenoxyphenyl)-1-(3-pyridinylmethyl)-1,5-dihydro-2H-pyrrol-2-one] | 71 | > 10 |
| COc1ccc(C2(CNC(=O)c3ccc(NC(=O)c4ccco4)cc3)CCOCC2)cc1 [Molecule 73, N-{4-[({[4-(4-methoxyphenyl)tetrahydro-2H-pyran-4-yl]methyl}amino)carbonyl]phenyl}-2-furamide] | 28 | > 10 |
| COC(=O)c1ccc(NC(=O)CC2C(=O)N(c3ccccc3)C(=O)N2Cc2ccc3c(c2)OCO3)cc1 (stereo not shown) [Molecule 77, methyl 4-({[3-(1,3-benzodioxol-5-ylmethyl)-2,5-dioxo-1-phenyl-4-imidazolidinyl]acetyl}amino)benzoate] | 26 | > 10 |
| COc1cc(C2C(C(=O)c3cccs3)=C(O)C(=O)N2CCc2ccccc2)cc(Br)c1O (stereo not shown) [Molecule 8, 5-(3-bromo-4-hydroxy-5-methoxyphenyl)-3-hydroxy-1-(2-phenylethyl)-4-(2-thienylcarbonyl)-1,5-dihydro-2H-pyrrol-2-one] | 71 | > 10 |
| CN(C)S(=O)(=O)c1ccc(C(=O)C2=C(O)C(=O)N(CCCN3CCOCC3)C2c2cccnc2)cc1 (stereo not shown) [Molecule 65, 4-{[4-hydroxy-1-[3-(4-morpholinyl)propyl]-5-oxo-2-(3-pyridinyl)-2,5-dihydro-1H-pyrrol-3-yl]carbonyl}-N,N-dimethylbenzenesulphonamide] | 37 | > 10 |
| COc1cccc2cc(C(=O)C3=C(O)C(=O)N(CCCn4ccnc4)C3c3ccccn3)oc12 (stereo not shown) [Molecule 64] | 37.5 | > 10 |
| CCN(CC)CCCN1C(=O)C(O)=C(C(=O)c2ccc3c(c2)OCO3)C1c1cccnc1 (stereo not shown) [Molecule 51, 4-(1,3-benzodioxol-5-ylcarbonyl)-1-[3-(diethylamino)propyl]-3-hydroxy-5-(3-pyridinyl)-1,5-dihydro-2H-pyrrol-2-one] | 46 | > 10 |
| CCN(CC)CCCN1C(=O)C(O)=C(C(=O)c2cc3cccc(OC)c3o2)C1c1ccccn1 (stereo not shown) [Molecule 86, 1-[3-(diethylamino)propyl]-3-hydroxy-4-[(7-methoxy-1-benzofuran-2-yl)carbonyl]-5-(2-pyridinyl)-1,5-dihydro-2H-pyrrol-2-one] | 17 | ~10 (≈ 21.6 µM) |
